Data reported in patent US10392391B2 (Vertex Pharmaceuticals Incorporated, priority 2012, dated 2019).

Target: ATR kinase (full-length ATR) (Homo sapiens (Human), UniProt Q13535)
Test: ATR inhibition assay (radioactive-phosphate incorporation)
Format: biochemical
Conditions: not given
Summary of the method: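 Ki(app) was fitted by non-linear regression to background-corrected initial rates. Full-length ATR (5 nM) phosphorylated 800 μM peptide using 10 μM [γ-33P]ATP at 25° C in Tris/HCl pH 7.5 buffer with MgCl2, DTT and 7% DMSO. After 10-minute compound pre-incubation and 24-hour reaction, phosphocellulose filters were scintillation counted.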

Sequence of ATR kinase (full-length ATR) (Q13535 whole entry): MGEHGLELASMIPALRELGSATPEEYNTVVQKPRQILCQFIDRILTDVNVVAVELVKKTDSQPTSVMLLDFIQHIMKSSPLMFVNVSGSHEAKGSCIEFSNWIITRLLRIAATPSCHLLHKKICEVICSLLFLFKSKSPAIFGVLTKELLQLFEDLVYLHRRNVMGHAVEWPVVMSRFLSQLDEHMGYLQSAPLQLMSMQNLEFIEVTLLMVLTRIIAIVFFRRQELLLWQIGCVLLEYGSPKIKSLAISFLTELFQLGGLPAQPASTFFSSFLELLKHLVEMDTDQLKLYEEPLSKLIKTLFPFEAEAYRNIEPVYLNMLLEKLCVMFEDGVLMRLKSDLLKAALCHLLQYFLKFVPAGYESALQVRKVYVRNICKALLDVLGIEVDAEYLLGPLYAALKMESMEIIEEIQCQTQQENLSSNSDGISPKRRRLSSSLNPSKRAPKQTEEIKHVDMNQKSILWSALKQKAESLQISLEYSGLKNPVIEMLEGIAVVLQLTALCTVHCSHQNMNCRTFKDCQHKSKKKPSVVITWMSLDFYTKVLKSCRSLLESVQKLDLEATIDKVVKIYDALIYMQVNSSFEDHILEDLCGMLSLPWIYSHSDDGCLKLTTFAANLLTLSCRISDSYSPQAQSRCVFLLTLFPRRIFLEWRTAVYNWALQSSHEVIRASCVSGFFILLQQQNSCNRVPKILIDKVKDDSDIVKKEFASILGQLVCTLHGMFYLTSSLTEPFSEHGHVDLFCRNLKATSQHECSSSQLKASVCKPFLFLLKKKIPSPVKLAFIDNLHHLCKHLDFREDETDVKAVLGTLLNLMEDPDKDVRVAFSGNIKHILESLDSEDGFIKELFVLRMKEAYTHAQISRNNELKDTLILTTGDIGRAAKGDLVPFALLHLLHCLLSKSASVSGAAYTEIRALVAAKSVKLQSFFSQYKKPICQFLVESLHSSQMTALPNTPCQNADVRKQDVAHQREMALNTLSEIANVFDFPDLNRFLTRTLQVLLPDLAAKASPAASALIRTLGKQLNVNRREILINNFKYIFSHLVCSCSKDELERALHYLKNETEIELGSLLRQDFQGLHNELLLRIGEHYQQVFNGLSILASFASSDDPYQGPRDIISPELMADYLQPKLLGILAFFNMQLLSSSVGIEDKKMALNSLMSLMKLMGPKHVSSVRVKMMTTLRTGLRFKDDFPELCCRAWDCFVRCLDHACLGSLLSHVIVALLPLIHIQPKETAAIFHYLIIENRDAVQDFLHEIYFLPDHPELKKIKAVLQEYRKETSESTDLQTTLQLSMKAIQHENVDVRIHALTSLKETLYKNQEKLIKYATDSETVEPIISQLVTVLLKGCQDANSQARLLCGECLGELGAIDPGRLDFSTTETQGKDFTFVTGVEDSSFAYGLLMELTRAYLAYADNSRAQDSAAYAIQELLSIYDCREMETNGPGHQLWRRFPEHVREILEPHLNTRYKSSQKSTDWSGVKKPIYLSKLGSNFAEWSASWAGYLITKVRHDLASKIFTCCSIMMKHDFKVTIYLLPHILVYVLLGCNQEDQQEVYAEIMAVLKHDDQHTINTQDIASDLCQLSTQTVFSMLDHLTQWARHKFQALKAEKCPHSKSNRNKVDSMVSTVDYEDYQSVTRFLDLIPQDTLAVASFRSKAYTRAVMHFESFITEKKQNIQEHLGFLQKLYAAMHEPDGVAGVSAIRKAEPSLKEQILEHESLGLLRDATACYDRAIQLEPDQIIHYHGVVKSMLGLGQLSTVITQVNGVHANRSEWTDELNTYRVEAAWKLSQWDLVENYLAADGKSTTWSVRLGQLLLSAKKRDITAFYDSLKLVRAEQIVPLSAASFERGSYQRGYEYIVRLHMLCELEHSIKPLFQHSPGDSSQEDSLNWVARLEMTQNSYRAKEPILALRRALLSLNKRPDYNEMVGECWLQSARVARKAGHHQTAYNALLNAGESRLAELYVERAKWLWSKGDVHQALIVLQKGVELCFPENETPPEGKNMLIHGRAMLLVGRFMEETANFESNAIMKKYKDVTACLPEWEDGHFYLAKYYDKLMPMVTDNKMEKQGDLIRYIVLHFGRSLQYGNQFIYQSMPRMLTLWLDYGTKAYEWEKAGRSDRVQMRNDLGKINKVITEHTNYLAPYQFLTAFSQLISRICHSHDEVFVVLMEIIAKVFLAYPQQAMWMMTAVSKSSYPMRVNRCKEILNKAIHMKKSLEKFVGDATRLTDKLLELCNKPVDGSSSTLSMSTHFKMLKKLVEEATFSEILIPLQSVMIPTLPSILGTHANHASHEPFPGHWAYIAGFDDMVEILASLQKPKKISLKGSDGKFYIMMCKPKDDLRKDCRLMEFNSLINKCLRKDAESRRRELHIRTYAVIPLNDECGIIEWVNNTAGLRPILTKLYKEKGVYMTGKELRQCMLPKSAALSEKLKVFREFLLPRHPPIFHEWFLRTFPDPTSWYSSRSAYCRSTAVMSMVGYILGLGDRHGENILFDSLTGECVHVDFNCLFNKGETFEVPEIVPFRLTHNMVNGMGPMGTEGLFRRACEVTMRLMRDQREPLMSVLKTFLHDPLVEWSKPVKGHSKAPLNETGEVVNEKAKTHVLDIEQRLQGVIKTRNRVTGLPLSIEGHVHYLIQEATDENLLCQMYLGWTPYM

Ki	Structure (SMILES)
10 to 1000 nM	CN1CC2CN(C(=O)C3CCN(c4c(F)cncc4NC(=O)c4c(N)nn5cc(F)cnc45)CC3)CC2C1 (stereo not shown) [I-G-18, 2-amino-6-fluoro-N-(5-fluoro-4-(4-(5-methyloctahydropyrrolo[3,4-c]pyrrole-2-carbonyl)piperidin-1-yl)pyridin-3-yl)pyrazolo[1,5-a]pyrimidine-3-carboxamide]
1000 to 5000 nM	Nc1nn2cc(F)cnc2c1C(=O)Nc1cncc(F)c1N1CCC(C(=O)N2CC(O)C2)CC1 [I-G-41, 2-amino-6-fluoro-N-(5-fluoro-4-(4-(3-hydroxyazetidine-1-carbonyl)piperidin-1-yl)pyridin-3-yl)pyrazolo[1,5-a]pyrimidine-3-carboxamide]

Same assay, conditions: Ki(app), 5 nM full-length ATR, 10 μM ATP, 25° C.

Structure (SMILES)	Ki
CC(C)(C)NC(=O)C1CCN(c2c(F)cncc2NC(=O)c2c(N)nn3cc(F)cnc23)CC1 [I-G-19, 2-amino-N-(4-(4-(tert-butylcarbamoyl)piperidin-1-yl)-5-fluoropyridin-3-yl)-6-fluoropyrazolo[1,5-a]pyrimidine-3-carboxamide]	10 to 1000 nM
CN1CCC(NC(=O)C2CCN(c3c(F)cncc3NC(=O)c3c(N)nn4cc(F)cnc34)CC2)CC1 [I-G-20, 2-amino-6-fluoro-N-(5-fluoro-4-(4-((1-methylpiperidin-4-yl)carbamoyl)piperidin-1-yl)pyridin-3-yl)pyrazolo[1,5-a]pyrimidine-3-carboxamide]	10 to 1000 nM
CN1CC(NC(=O)C2CCN(c3c(F)cncc3NC(=O)c3c(N)nn4cc(F)cnc34)CC2)C1 [I-G-23, 2-amino-6-fluoro-N-(5-fluoro-4-(4-((1-methylazetidin-3-yl)carbamoyl)piperidin-1-yl)pyridin-3-yl)pyrazolo[1,5-a]pyrimidine-3-carboxamide]	10 to 1000 nM
CN1CCC(NC(=O)C2CCN(c3c(F)cncc3NC(=O)c3c(N)nn4cc(F)cnc34)CC2)C1 (stereo not shown) [I-G-24, 2-amino-6-fluoro-N-(5-fluoro-4-(4-((1-methylpyrrolidin-3-yl)carbamoyl)piperidin-1-yl)pyridin-3-yl)pyrazolo[1,5-a]pyrimidine-3-carboxamide]	10 to 1000 nM
CN1CCN(C(=O)C2(C#N)CCN(c3c(F)cncc3NC(=O)c3c(N)nn4cc(F)cnc34)CC2)CC1 [I-G-25, 2-amino-N-(4-(4-cyano-4-(4-methylpiperazine-1-carbonyl)piperidin-1-yl)-5-fluoropyridin-3-yl)-6-fluoropyrazolo[1,5-a]pyrimidine-3-carboxamide]	10 to 1000 nM
CN(C)CCCNC(=O)C1CCN(c2c(F)cncc2NC(=O)c2c(N)nn3cc(F)cnc23)CC1 [I-G-26, 2-amino-N-(4-(4-((3-(dimethylamino)propyl)carbamoyl)piperidin-1-yl)-5-fluoropyridin-3-yl)-6-fluoropyrazolo[1,5-a]pyrimidine-3-carboxamide]	10 to 1000 nM
CN(C)CCN(C)C(=O)C1CCN(c2c(F)cncc2NC(=O)c2c(N)nn3cc(F)cnc23)CC1 [I-G-31, 2-amino-N-(4-(4-((2-(dimethylamino)ethyl)(methyl)carbamoyl)piperidin-1-yl)-5-fluoropyridin-3-yl)-6-fluoropyrazolo[1,5-a]pyrimidine-3-carboxamide]	10 to 1000 nM
Nc1nn2cc(F)cnc2c1C(=O)Nc1cncc(F)c1N1CCC(C(=O)N2CCN(C3CCC3)CC2)CC1 [I-G-35, 2-amino-N-(4-(4-(4-cyclobutylpiperazine-1-carbonyl)piperidin-1-yl)-5-fluoropyridin-3-yl)-6-fluoropyrazolo[1,5-a]pyrimidine-3-carboxamide]	10 to 1000 nM
Nc1nn2cc(F)cnc2c1C(=O)Nc1cncc(F)c1N1CCC(C(=O)NC2COC2)CC1 [I-G-37, 2-amino-6-fluoro-N-(5-fluoro-4-(4-(oxetan-3-ylcarbamoyl)piperidin-1-yl)pyridin-3-yl)pyrazolo[1,5-a]pyrimidine-3-carboxamide]	10 to 1000 nM
COCCN(C)C(=O)C1CCN(c2c(F)cncc2NC(=O)c2c(N)nn3cc(F)cnc23)CC1 [I-G-40, 2-amino-6-fluoro-N-(5-fluoro-4-(4-((2-methoxyethyl)(methyl)carbamoyl)piperidin-1-yl)pyridin-3-yl)pyrazolo[1,5-a]pyrimidine-3-carboxamide]	10 to 1000 nM
Nc1nn2cc(F)cnc2c1C(=O)Nc1cncc(F)c1N1CCC(C(=O)NCCN2CCC2)CC1 [I-G-42, 2-amino-N-(4-(4-((2-(azetidin-1-yl)ethyl)carbamoyl)piperidin-1-yl)-5-fluoropyridin-3-yl)-6-fluoropyrazolo[1,5-a]pyrimidine-3-carboxamide]	10 to 1000 nM
Nc1nn2cc(F)cnc2c1C(=O)Nc1cncc(F)c1N1CCC(C(=O)N2CC3CCC(C2)N3)CC1 [I-G-44, N-(4-(4-(3,8-diazabicyclo[3.2.1]octane-3-carbonyl)piperidin-1-yl)-5-fluoropyridin-3-yl)-2-amino-6-fluoropyrazolo[1,5-a]pyrimidine-3-carboxamide]	10 to 1000 nM

Next, values leading:

Ki	Structure (SMILES)
10 to 1000 nM	CN(C)C1CN(C(=O)C2CCN(c3c(F)cncc3NC(=O)c3c(N)nn4cc(F)cnc34)CC2)C1 [I-G-22, 2-amino-N-(4-(4-(3-(dimethylamino)azetidine-1-carbonyl)piperidin-1-yl)-5-fluoropyridin-3-yl)-6-fluoropyrazolo[1,5-a]pyrimidine-3-carboxamide]
10 to 1000 nM	CC1(C)CN(C(=O)C2CCN(c3c(F)cncc3NC(=O)c3c(N)nn4cc(F)cnc34)CC2)CCN1 [I-G-27, 2-amino-N-(4-(4-(3,3-dimethylpiperazine-1-carbonyl)piperidin-1-yl)-5-fluoropyridin-3-yl)-6-fluoropyrazolo[1,5-a]pyrimidine-3-carboxamide]
10 to 1000 nM	CN(C)C(=O)C1CCN(c2c(F)cncc2NC(=O)c2c(N)nn3cc(F)cnc23)CC1 [I-G-29, 2-amino-N-(4-(4-(dimethylcarbamoyl)piperidin-1-yl)-5-fluoropyridin-3-yl)-6-fluoropyrazolo[1,5-a]pyrimidine-3-carboxamide]
10 to 1000 nM	CNC1CN(C(=O)C2CCN(c3c(F)cncc3NC(=O)c3c(N)nn4cc(F)cnc34)CC2)C1 [I-G-34, 2-amino-6-fluoro-N-(5-fluoro-4-(4-(3-(methylamino)azetidine-1-carbonyl)piperidin-1-yl)pyridin-3-yl)pyrazolo[1,5-a]pyrimidine-3-carboxamide]
10 to 1000 nM	Nc1nn2cc(F)cnc2c1C(=O)Nc1cncc(F)c1N1CCC(C(=O)N2CCOCC2)CC1 [I-G-36, 2-amino-6-fluoro-N-(5-fluoro-4-(4-(morpholine-4-carbonyl)piperidin-1-yl)pyridin-3-yl)pyrazolo[1,5-a]pyrimidine-3-carboxamide]
10 to 1000 nM	CN1CCN(C(=O)C2CCN(c3c(F)cncc3NC(=O)c3c(N)nn4cc(F)cnc34)CC2)CC12CC2 [I-G-38, 2-amino-6-fluoro-N-(5-fluoro-4-(4-(4-methyl-4,7-diazaspiro[2.5]octane-7-carbonyl)piperidin-1-yl)pyridin-3-yl)pyrazolo[1,5-a]pyrimidine-3-carboxamide]
10 to 1000 nM	Nc1nn2cc(F)cnc2c1C(=O)Nc1cncc(F)c1N1CCC(C(=O)N2CC(N3CCCC3)C2)CC1 [I-G-43, 2-amino-6-fluoro-N-(5-fluoro-4-(4-(3-(pyrrolidin-1-yl)azetidine-1-carbonyl)piperidin-1-yl)pyridin-3-yl)pyrazolo[1,5-a]pyrimidine-3-carboxamide]
10 to 1000 nM	C[C@@H]1CN(C(=O)C2CCN(c3c(F)cncc3NC(=O)c3c(N)nn4cc(F)cnc34)CC2)CCN1 [I-G-45, (R)-2-amino-6-fluoro-N-(5-fluoro-4-(4-(3-methylpiperazine-1-carbonyl)piperidin-1-yl)pyridin-3-yl)pyrazolo[1,5-a]pyrimidine-3-carboxamide]
